Experimental data taken from the NIST ThermoML archive (doi:10.1016/j.jct.2012.11.016).
± gives the expanded uncertainty stated by the source.

Legend:
[1] = 101.33 kPa, Liquid; for viscosity: Capillary tube (Ostwald / Ubbelohde) method; for mass density: Vibrating tube method
[2] = refractive index (Na D-line) (dimensionless); conditions: 101.33 kPa, Liquid, Standard Abbe refractometry

Row | SMILES | viscosity ([1]; 298.15 K) [mPa·s] | viscosity ([1]; 303.15 K) [mPa·s] | mass density ([1]; 303.15 K) [kg/m3] | viscosity ([1]; 308.15 K) [mPa·s] | mass density ([1]; 308.15 K) [kg/m3] | refractive index ([2]; 298.15 K) | refractive index ([2]; 303.15 K) | refractive index ([2]; 308.15 K) | mass density ([1]; 298.15 K) [kg/m3]
1 | O [water] | 0.806 ± 0.081 | 0.728 ± 0.073 | 995.4 ± 0.3 | 0.661 ± 0.066 | 993.7 ± 0.3 | 1.3326 ± 0.0005 | 1.3321 ± 0.0005 | 1.3315 ± 0.0005 | –
2 | OCCO [1,2-ethanediol] | 16.87 ± 1.7 | 13.59 ± 1.4 | 1106 ± 1.1 | 11.34 ± 1.1 | – | – | – | – | –
3 | OCCCO [propan-1,3-diol] | 41.36 ± 4.2 | 32.78 ± 3.3 | 1046.2 ± 0.9 | 27 ± 2.7 | 1043.1 ± 0.9 | – | – | – | 1049.6 ± 0.9
4 | OCCCCO [1,4-butanediol] | 72.33 ± 7.3 | 56.43 ± 5.7 | 1010.6 ± 0.9 | 44.11 ± 4.5 | 1007.5 ± 0.9 | – | – | – | 1013.9 ± 0.9
